Laboratory results from article PMC3950665, “Syn5 RNA polymerase synthesizes precise run-off RNA products” (Nucleic Acids Research, 2013).

Key:
[1] = biological target: T1, Syn5 RNA polymerase (Synechococcus phage Syn5, UniProt A4ZR96); test: run-off transcription, agarose gel and RNA yield by A260; assay type: biochemical; details: ATP, GTP, NotI-linearized pET24-Syn5RNAP, 6 mM MgCl2, pH 8.0, no KCl, 24°C
T1 construct: gene 15; His-tagged, pET24 (NdeI/NotI), expressed in E. coli BL21(DE3); single-subunit
T1 sequence (A4ZR96 1-779): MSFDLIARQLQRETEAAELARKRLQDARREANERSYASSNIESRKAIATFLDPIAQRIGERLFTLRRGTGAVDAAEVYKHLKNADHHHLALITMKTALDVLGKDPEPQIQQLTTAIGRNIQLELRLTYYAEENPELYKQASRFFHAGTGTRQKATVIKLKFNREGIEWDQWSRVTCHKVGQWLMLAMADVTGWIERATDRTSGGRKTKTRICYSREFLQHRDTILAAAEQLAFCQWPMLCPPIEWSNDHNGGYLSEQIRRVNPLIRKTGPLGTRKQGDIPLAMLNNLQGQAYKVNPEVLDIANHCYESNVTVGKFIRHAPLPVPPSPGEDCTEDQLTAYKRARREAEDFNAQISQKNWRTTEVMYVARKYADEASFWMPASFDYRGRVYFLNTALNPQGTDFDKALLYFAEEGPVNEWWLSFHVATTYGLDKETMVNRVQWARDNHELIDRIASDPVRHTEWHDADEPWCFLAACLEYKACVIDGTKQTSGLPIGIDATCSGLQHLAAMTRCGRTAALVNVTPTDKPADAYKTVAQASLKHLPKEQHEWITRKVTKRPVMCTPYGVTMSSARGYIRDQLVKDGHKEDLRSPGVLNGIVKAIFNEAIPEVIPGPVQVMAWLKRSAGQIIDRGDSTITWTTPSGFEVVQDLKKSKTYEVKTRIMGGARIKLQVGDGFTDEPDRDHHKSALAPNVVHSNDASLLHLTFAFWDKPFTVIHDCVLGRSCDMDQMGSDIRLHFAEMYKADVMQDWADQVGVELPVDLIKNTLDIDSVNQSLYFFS

[2] = biological target: T2, T7 RNA polymerase (Escherichia phage T7, UniProt P00573); test: as above; assay type: biochemical; details: ATP, GTP, NotI-linearized pET24-Syn5RNAP, 6 mM MgCl2, pH 8.0, no KCl, 37°C
T2 construct: gene 1
T2 sequence (P00573 whole entry): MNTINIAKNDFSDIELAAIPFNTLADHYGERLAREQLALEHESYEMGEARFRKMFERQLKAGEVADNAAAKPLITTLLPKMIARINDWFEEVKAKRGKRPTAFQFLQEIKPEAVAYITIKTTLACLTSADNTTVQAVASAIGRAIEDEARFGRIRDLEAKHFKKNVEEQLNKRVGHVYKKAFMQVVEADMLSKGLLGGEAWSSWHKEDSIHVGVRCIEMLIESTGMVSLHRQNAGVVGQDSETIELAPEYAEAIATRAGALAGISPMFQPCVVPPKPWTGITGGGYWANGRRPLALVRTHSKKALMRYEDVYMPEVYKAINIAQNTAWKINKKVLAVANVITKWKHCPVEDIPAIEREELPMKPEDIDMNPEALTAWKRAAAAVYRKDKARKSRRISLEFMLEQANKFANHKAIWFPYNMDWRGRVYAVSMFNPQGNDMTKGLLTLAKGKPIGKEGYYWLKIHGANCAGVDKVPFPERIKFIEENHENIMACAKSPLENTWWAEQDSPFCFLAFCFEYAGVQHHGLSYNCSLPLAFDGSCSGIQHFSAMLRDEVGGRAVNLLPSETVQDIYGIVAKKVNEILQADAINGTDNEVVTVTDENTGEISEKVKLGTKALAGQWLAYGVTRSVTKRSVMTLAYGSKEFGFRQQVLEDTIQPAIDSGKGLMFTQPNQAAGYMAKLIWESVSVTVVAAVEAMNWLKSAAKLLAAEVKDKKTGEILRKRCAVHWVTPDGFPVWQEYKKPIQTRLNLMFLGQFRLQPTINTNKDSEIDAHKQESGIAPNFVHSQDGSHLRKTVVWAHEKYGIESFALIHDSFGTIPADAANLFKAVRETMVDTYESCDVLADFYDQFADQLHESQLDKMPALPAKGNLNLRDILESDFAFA

| SMILES | run-off transcription, agarose gel and RNA yield by A260 ([1]; replaces CTP at 600 µM, UTP) | run-off transcription, agarose gel and RNA yield by A260 ([2]; replaces CTP at 600 µM, UTP) | run-off transcription, agarose gel and RNA yield by A260 ([1]; replaces UTP at 600 µM, CTP) | run-off transcription, agarose gel and RNA yield by A260 ([2]; replaces UTP at 600 µM, CTP) |
| --- | --- | --- | --- | --- |
| Cc1cn([C@@H]2O[C@H](COP(=O)(O)OP(=O)(O)OP(=O)(O)O)[C@@H](O)[C@H]2O)c(=O)nc1N [5-methylcytidine-5′-triphosphate] | the efficiency by which Syn5 RNA polymerase incorporated 5mC and Ps-U | T7 RNA polymerase also incorporates 5mC and Ps-U at comparable efficiencies | – | – |
| O=c1[nH]cc([C@@H]2O[C@H](COP(=O)(O)OP(=O)(O)OP(=O)(O)O)[C@@H](O)[C@H]2O)c(=O)[nH]1 [pseudouridine-5′-triphosphate] | – | – | the efficiency by which Syn5 RNA polymerase incorporated 5mC and Ps-U | T7 RNA polymerase also incorporates 5mC and Ps-U at comparable efficiencies |
